# What was measured:
# [1] = system: Escherichia coli (E. coli) BAS849; experiment: Antibacterial activity, microbroth dilution MIC (Table 1); assay type: cell-based; details: microbroth dilution, super sensitive Gram-negative E. coli BAS849, read-out: MIC, BAS849
# Summary of the method: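 MIC (μg/mL) is taken as the lowest concentration with no macroscopically visible growth. Strains tested by microbroth dilution: Gram-positive S. aureus 29213, control Gram-negative E. coli 25922, and super-sensitive E. coli BAS849.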
# [2] = system: Staphylococcus aureus (S. aureus) 29213; experiment: as above; assay type: cell-based; details: microbroth dilution, Gram-positive S. aureus 29213, read-out: MIC, 29213
# Summary of the method: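 Broth microdilution; endpoint = no macroscopic growth; value = lowest inhibiting concn, μg/mL.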
# E. coli 25922 = experiment: as above; assay type: cell-based, Escherichia coli; details: Escherichia coli; microbroth dilution; control Gram-negative E. coli 25922 strain; read-out: MIC, 25922
# Summary of the method: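 Using broth microdilution, MIC endpoints (μg/mL) mark where visible growth no longer appears; the panel spans sensitive and control Gram-negative strains plus a Gram-positive strain.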
# E. coli LZ3111 = experiment: Antibacterial activity, MIC, quinolone resistant strain (Table 2); assay type: cell-based; details: Escherichia coli, LZ3111, read-out: MIC LZ3111
# Summary of the method: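 Broth microdilution. Read-out: MIC in μg/mL, taken as lowest concentration with no macroscopically visible growth.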
# E. coli ELZ4000 = experiment: Antibacterial activity, MIC, multi-drug resistant clinical isolate (Table 3); assay type: cell-based; details: Escherichia coli, ELZ4000, read-out: MIC ELZ4000
# Summary of the method: (§1)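 MIC (μg/mL) read as lowest concentration with no macroscopically visible growth, determined by microbroth dilution.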
# E. coli ELZ4251 = experiment: as above; assay type: cell-based; details: Escherichia coli
# Summary of the method: as §1
# [3] = system: Acinetobacter baumannii (A. baumannii) BAA747; experiment: Antibacterial activity, MIC (Table 4); assay type: cell-based; details: A. baumannii BAA747, read-out: MIC, BAA747
# Summary of the method: (§2)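 Compounds are serially diluted in microbroth, bacteria are grown under the test conditions, and growth is then inspected macroscopically. The lowest concentration without visible growth is reported as the MIC (μg/mL).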
# [4] = system: Klebsiella pneumoniae (K. pneumoniae) 35657; experiment: Antibacterial activity, MIC (Table 4); assay type: cell-based; details: K. pneumoniae 35657, read-out: MIC, 35657
# Summary of the method: as §2
# A. baumannii MXX2240 = experiment: Antibacterial activity, MIC, resistant strain (Table 4); assay type: cell-based; details: Acinetobacter baumannii, MXX2240; resistant A. baumannii MMX2240, multi-drug resistant clinical isolate; read-out: MIC, MMX2240
# Summary of the method: as §2
# K. pneumoniae MXX1232 = experiment: as above; assay type: cell-based; details: Klebsiella pneumoniae, MXX1232; resistant K. pneumoniae MMX1232, multi-drug resistant clinical isolate; read-out: MIC, MMX1232
# Summary of the method: as §2
# [5] = system: Pseudomonas aeruginosa (P. aeruginosa) 27853; experiment: Antibacterial activity, MIC (Table 5); assay type: cell-based; details: P. aeruginosa 27853, read-out: MIC, 27853
# Summary of the method: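 Microbroth dilution; MIC (μg/mL) = lowest concentration with no macroscopically visible growth.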
# [6] = system: Haemophilus influenzae (H. influenzae) 49247; experiment: Antibacterial activity, MIC (Table 6); assay type: cell-based
# Summary of the method: (§3)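 Values are minimum inhibitory concentrations in μg/mL, read as the lowest compound concentration at which no growth is visible to the eye. Testing used a microbroth dilution format.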
# [7] = system: Moraxella catarrhalis (M. catarrhalis) 25238; experiment: Antibacterial activity, MIC (Table 7); assay type: cell-based
# From the text: The antibacterial activity from a microbroth dilution method may be presented as the minimum inhibitory concentration (MIC in μg/mL). The MIC value is the lowest concentration of drug which prevents macroscopically visible growth under test conditions.
# Antibacterial activity of test compounds against the Gram-negative bacteria Haemophilus influenzae (H. influenzae) 49247 is shown in Table 6, Moraxella catarrhalis (M. catarrhalis) 25238 is shown in Table 7 and Neisseria meningitidis (N. meningitidis) 13090 is shown in Table 8.
# [8] = system: Neisseria meningitidis (N. meningitidis) 13090; experiment: Antibacterial activity, MIC (Table 8); assay type: cell-based
# Summary of the method: as §3
compound,measurement,setting,value
"CCc1c(-c2ccc3c(c2)cc(CN2CCC(C(C)(C)N)C2)n3C)[nH]c(=O)c(C(=O)O)c1O (stereo not drawn) [Cpd 185, 6-(2-((3-(2-aminopropan-2-yl)pyrrolidin-1-yl)methyl)-1-methyl-1H-indol-5-yl)-5-ethyl-4-hydroxy-2-oxo-1,2-dihydropyridine-3-carboxylic acid]",MIC,[1],< 1 µg/mL
same,MIC,[2],12.5 to 150 µg/mL
same,MIC,E. coli 25922,1 to 3.5 µg/mL
same,MIC,E. coli LZ3111,1 to 3.5 µg/mL
same,MIC,E. coli ELZ4000,12.5 to 150 µg/mL
same,MIC,E. coli ELZ4251,12.5 to 150 µg/mL
same,MIC,[3],12.5 to 150 µg/mL
same,MIC,[4],1 to 3.5 µg/mL
same,MIC,A. baumannii MXX2240,12.5 to 150 µg/mL
same,MIC,K. pneumoniae MXX1232,12.5 to 150 µg/mL
same,MIC,[5],3.5 to 12.5 µg/mL
same,MIC,[6],1 to 3.5 µg/mL
same,MIC,[7],1 to 3.5 µg/mL
same,MIC,[8],< 1 µg/mL
"CCc1c(-c2ccc3c(c2)cc(CN2CCC2)n3C)[nH]c(=O)c(C(=O)O)c1O [Cpd 186, 6-(2-(azetidin-1-ylmethyl)-1-methyl-1H-indol-5-yl)-5-ethyl-4-hydroxy-2-oxo-1,2-dihydropyridine-3-carboxylic acid]",MIC,[1],< 1 µg/mL
same,MIC,[2],3.5 to 12.5 µg/mL
same,MIC,E. coli 25922,< 1 µg/mL
same,MIC,E. coli LZ3111,1 to 3.5 µg/mL
same,MIC,E. coli ELZ4000,3.5 to 12.5 µg/mL
same,MIC,E. coli ELZ4251,3.5 to 12.5 µg/mL
same,MIC,[3],< 1 µg/mL
same,MIC,[4],< 1 µg/mL
same,MIC,A. baumannii MXX2240,1 to 3.5 µg/mL
same,MIC,K. pneumoniae MXX1232,12.5 to 150 µg/mL
same,MIC,[5],3.5 to 12.5 µg/mL
same,MIC,[6],< 1 µg/mL
same,MIC,[7],< 1 µg/mL
same,MIC,[8],3.5 to 12.5 µg/mL
"CCc1c(-c2ccc3c(c2)cc(CN2CC(O)C2)n3C)[nH]c(=O)c(C(=O)O)c1O [Cpd 187, 5-ethyl-4-hydroxy-6-(2-((3-hydroxyazetidin-1-yl)methyl)-1-methyl-1H-indol-5-yl)-2-oxo-1,2-dihydropyridine-3-carboxylic acid]",MIC,[1],< 1 µg/mL
same,MIC,[2],12.5 to 150 µg/mL
same,MIC,E. coli 25922,< 1 µg/mL
same,MIC,E. coli LZ3111,1 to 3.5 µg/mL
same,MIC,E. coli ELZ4000,12.5 to 150 µg/mL
same,MIC,E. coli ELZ4251,3.5 to 12.5 µg/mL
same,MIC,[3],1 to 3.5 µg/mL
same,MIC,[4],1 to 3.5 µg/mL
same,MIC,A. baumannii MXX2240,12.5 to 150 µg/mL
same,MIC,K. pneumoniae MXX1232,12.5 to 150 µg/mL
same,MIC,[5],3.5 to 12.5 µg/mL
same,MIC,[6],< 1 µg/mL
same,MIC,[7],< 1 µg/mL
same,MIC,[8],< 1 µg/mL
"CCc1c(-c2ccc3c(c2)cc(CN2CC(N)C2)n3C)[nH]c(=O)c(C(=O)O)c1O [Cpd 188, 6-(2-((3-aminoazetidin-1-yl)methyl)-1-methyl-1H-indol-5-yl)-5-ethyl-4-hydroxy-2-oxo-1,2-dihydropyridine-3-carboxylic acid]",MIC,[1],< 1 µg/mL
same,MIC,[2],12.5 to 150 µg/mL
same,MIC,E. coli 25922,< 1 µg/mL
same,MIC,E. coli LZ3111,1 to 3.5 µg/mL
same,MIC,E. coli ELZ4000,12.5 to 150 µg/mL
same,MIC,E. coli ELZ4251,12.5 to 150 µg/mL
same,MIC,[3],12.5 to 150 µg/mL
same,MIC,[4],12.5 to 150 µg/mL
same,MIC,A. baumannii MXX2240,12.5 to 150 µg/mL
same,MIC,K. pneumoniae MXX1232,12.5 to 150 µg/mL
same,MIC,[5],12.5 to 150 µg/mL
same,MIC,[6],3.5 to 12.5 µg/mL
same,MIC,[7],3.5 to 12.5 µg/mL
same,MIC,[8],3.5 to 12.5 µg/mL
"CCc1c(-c2ccc3c(c2)cc(CN2CC(N(C)C)C2)n3C)[nH]c(=O)c(C(=O)O)c1O [Cpd 189, 6-(2-((3-(dimethylamino)azetidin-1-yl)methyl)-1-methyl-1H-indol-5-yl)-5-ethyl-4-hydroxy-2-oxo-1,2-dihydropyridine-3-carboxylic acid]",MIC,[1],< 1 µg/mL
same,MIC,[2],3.5 to 12.5 µg/mL
same,MIC,E. coli 25922,1 to 3.5 µg/mL
same,MIC,E. coli LZ3111,3.5 to 12.5 µg/mL
same,MIC,E. coli ELZ4000,12.5 to 150 µg/mL
same,MIC,E. coli ELZ4251,3.5 to 12.5 µg/mL
same,MIC,[3],1 to 3.5 µg/mL
same,MIC,[4],1 to 3.5 µg/mL
same,MIC,A. baumannii MXX2240,12.5 to 150 µg/mL
same,MIC,K. pneumoniae MXX1232,12.5 to 150 µg/mL
same,MIC,[5],12.5 to 150 µg/mL
same,MIC,[6],< 1 µg/mL
same,MIC,[7],< 1 µg/mL
same,MIC,[8],< 1 µg/mL
"CCc1c(-c2ccc3c(c2)cc(CN2CCCCC2)n3C)[nH]c(=O)c(C(=O)O)c1O [Cpd 192, 5-ethyl-4-hydroxy-6-(1-methyl-2-(piperidin-1-ylmethyl)-1H-indol-5-yl)-2-oxo-1,2-dihydropyridine-3-carboxylic acid]",MIC,[1],< 1 µg/mL
same,MIC,[2],3.5 to 12.5 µg/mL
same,MIC,E. coli 25922,< 1 µg/mL
same,MIC,E. coli LZ3111,1 to 3.5 µg/mL
same,MIC,E. coli ELZ4000,12.5 to 150 µg/mL
same,MIC,E. coli ELZ4251,3.5 to 12.5 µg/mL
same,MIC,[3],1 to 3.5 µg/mL
same,MIC,[4],1 to 3.5 µg/mL
same,MIC,A. baumannii MXX2240,1 to 3.5 µg/mL
same,MIC,K. pneumoniae MXX1232,12.5 to 150 µg/mL
same,MIC,[5],12.5 to 150 µg/mL
same,MIC,[6],< 1 µg/mL
same,MIC,[7],< 1 µg/mL
same,MIC,[8],< 1 µg/mL
"CCc1c(-c2ccc3c(c2)cc(CNC(C)(C)C)n3C)[nH]c(=O)c(C(=O)O)c1O [Cpd 193, 6-(2-((tert-butylamino)methyl)-1-methyl-1H-indol-5-yl)-5-ethyl-4-hydroxy-2-oxo-1,2-dihydropyridine-3-carboxylic acid]",MIC,[1],< 1 µg/mL
same,MIC,[2],3.5 to 12.5 µg/mL
same,MIC,E. coli 25922,< 1 µg/mL
same,MIC,E. coli LZ3111,3.5 to 12.5 µg/mL
same,MIC,E. coli ELZ4000,3.5 to 12.5 µg/mL
same,MIC,E. coli ELZ4251,3.5 to 12.5 µg/mL
same,MIC,[3],< 1 µg/mL
same,MIC,[4],< 1 µg/mL
same,MIC,A. baumannii MXX2240,1 to 3.5 µg/mL
same,MIC,K. pneumoniae MXX1232,12.5 to 150 µg/mL
same,MIC,[5],3.5 to 12.5 µg/mL
same,MIC,[6],< 1 µg/mL
same,MIC,[7],< 1 µg/mL
same,MIC,[8],< 1 µg/mL
"CCc1c(-c2ccc3c(c2)cc(CNC(C)C)n3C)[nH]c(=O)c(C(=O)O)c1O [Cpd 199, 5-ethyl-4-hydroxy-6-(2-((isopropylamino)methyl)-1-methyl-1H-indol-5-yl)-2-oxo-1,2-dihydropyridine-3-carboxylic acid]",MIC,[1],< 1 µg/mL
same,MIC,[2],3.5 to 12.5 µg/mL
same,MIC,E. coli 25922,< 1 µg/mL
same,MIC,E. coli LZ3111,1 to 3.5 µg/mL
same,MIC,E. coli ELZ4000,3.5 to 12.5 µg/mL
same,MIC,E. coli ELZ4251,3.5 to 12.5 µg/mL
same,MIC,[3],< 1 µg/mL
same,MIC,[4],< 1 µg/mL
same,MIC,A. baumannii MXX2240,1 to 3.5 µg/mL
same,MIC,K. pneumoniae MXX1232,12.5 to 150 µg/mL
same,MIC,[5],3.5 to 12.5 µg/mL
same,MIC,[6],< 1 µg/mL
same,MIC,[7],< 1 µg/mL
same,MIC,[8],< 1 µg/mL
"CCc1c(-c2ccc3c(c2)cc(CN2CCC(N(C)C)C2)n3C)[nH]c(=O)c(C(=O)O)c1O (stereo not drawn) [Cpd 200, 6-(2-((3-(dimethylamino)pyrrolidin-1-yl)methyl)-1-methyl-1H-indol-5-yl)-5-ethyl-4-hydroxy-2-oxo-1,2-dihydropyridine-3-carboxylic acid]",MIC,[1],< 1 µg/mL
same,MIC,[2],3.5 to 12.5 µg/mL
same,MIC,E. coli 25922,1 to 3.5 µg/mL
same,MIC,E. coli LZ3111,1 to 3.5 µg/mL
same,MIC,E. coli ELZ4000,12.5 to 150 µg/mL
same,MIC,E. coli ELZ4251,12.5 to 150 µg/mL
same,MIC,[3],3.5 to 12.5 µg/mL
same,MIC,[4],12.5 to 150 µg/mL
same,MIC,A. baumannii MXX2240,12.5 to 150 µg/mL
same,MIC,K. pneumoniae MXX1232,12.5 to 150 µg/mL
same,MIC,[5],12.5 to 150 µg/mL
same,MIC,[6],1 to 3.5 µg/mL
same,MIC,[7],1 to 3.5 µg/mL
same,MIC,[8],< 1 µg/mL
